Data published in ChEMBL document CHEMBL4825727, “Cytotoxic oxidovanadium(IV) complexes of tridentate halogen-substituted Schiff bases: First dinuclear V(IV) complexes with O → VIV = O → VIV = O core” (Bioorg Med Chem Lett, 2021).

Key:
Type in all cases: functional, cell-based
[1] = system: PC-3; assay: Cytotoxicity against human PC-3 cells assessed as reduction in cell viability measured after 48 hrs by MTT assay; details: PC-3, 48 h
[2] = system: MCF7; assay: Cytotoxicity against human MCF7 cells assessed as reduction in cell viability measured after 48 hrs by MTT assay; details: MCF7, 48 h
[3] = system: A2780; assay: Cytotoxicity against human A2780 cells assessed as reduction in cell viability measured after 48 hrs by MTT assay; details: A2780, 48 h

| Compound | IC50 [1] [µM] | IC50 [2] [µM] | IC50 [3] [µM] |
| --- | --- | --- | --- |
| Oc1ccc(Cl)cc1/C=N/CCc1ccccn1 | 110 | 45 | 51 |
| Oc1ccc(Br)cc1/C=N/CCc1ccccn1 | 108 | 42 | 50 |
| Oc1c(Br)cc(Cl)cc1/C=N/CCc1ccccn1 | 83 | 48 | 48 |
| Oc1ccccc1/C=N/CCc1ccccn1 | > 100 | > 100 | > 100 |
